From EP1208096B1, “SUBSTITUTED PYRIDAZINES AND FUSED PYRIDAZINES WITH ANGIOGENESIS INHIBITING ACTIVITY” (Bayer Corporation, priority 1999, dated 2001)

Key:
[1] = biological target: T1, NIH3T3 cells expressing the full length KDR receptor (Homo sapiens, UniProt P35968); assay: Cell mechanistic assay - Inhibition of 3T3 KDR phosphorylation; format: cell-based; conditions: VEGF (30 ng / ml) for 10 minutes after 30 minutes with compound; KDR phosphotyrosine ELISA
T1 construct: NIH3T3 cells expressing the full length KDR receptor; expressed in transfected cells; host or cells: NIH3T3 cells (G418 selection)
Experimental: NIH3T3 cells expressing the full length KDR receptor were grown in DMEM (Life Technologies, Inc., Grand Island, NY) supplemented with 10% newborn calf serum, low glucose, 25 mM /L sodium pyruvate, pyridoxine hydrochloride and 0.2 mg/ ml of G418 (Life Technologies Inc., Grand Island, NY). The cells were maintained in collagen I-coated T75 flasks (Becton Dickinson Labware, Bedford, MA) in a humidified 5% CO2 atmosphere at 37°C.
Fifteen thousand cells were plated into each well of a collagen I-coated 96-well plate in the DMEM growth medium. Six hours later, the cells were washed and the medium was replaced with DMEM without serum. After overnight culture to quiesce the cells, the medium was replaced by Dulbecco's phosphate-buffered saline (Life Technologies Inc., Grand Island, NY) with 0.1% bovine albumin (Sigma Chemical Co., St Louis, MO). After adding various concentrations (0-300 nM) of test compounds to the cells in 1% final concentration of DMSO, the cells were incubated at room temperature for 30 minutes. The cells were then treated with VEGF (30 ng / ml) for 10 minutes at room temperature. Following VEGF stimulation, the buffer was removed and the cells were lysed by addition of 150 µl of extraction buffer (50 mM Tris, pH 7.8, supplemented with 10% glycerol, 50 mM BGP, 2 mM EDTA, 10 mM NaF, 0.5 mM NaVO4, and 0.3% TX-100) at 4°C for 30 minutes.
To assess receptor phosphorylation, 100 microliters of each cell lysate was added to the wells of an ELISA plate precoated with 300 ng of antibody C20 (Santa Cruz Biotechnology, Inc., Santa Cruz , CA). Following a 60-minute incubation, the plate was washed and bound KDR was probed for phosphotyrosine using an anti-phosphotyrosine mAb clone 4G10 (Upstate Biotechnology, Lake Placid, NY). The plate was washed and wells were incubated with anti-mouse IgG/HRP conjugate (Amersham International plc, Buckinghamshire, England) for 60 minutes. Wells were washed and phosphotyrosine was quantitated by addtion of 100 µl per well of 3,3',5,5' tetramethylbenzidine (Kirkegaard and Perry, TMB Microwell 1 Component peroxidase substrate) solution. Color development was arrested by the addition of 100 µl 1% HCl based stop solution (Kirkegaard and Perry, TMB 1 Component Stop Solution).
Optical densities (OD) were determined spectrophotometrically at 450 nm in a 96-well plate reader (SpectraMax 250, Molecular Devices). Background (no VEGF added) OD values were subtracted from all ODs and percent inhibition was calculated according to the equation: % Inhibition =((OD(VEGF control) - OD(with test compound)) X 100)/(OD(VEGF control) - OD(no VEGF added)) [formula]
IC50s were determined with a least squares analysis program using compound concentration versus percent inhibition. Compounds that have IC50 < 20 nM in this assay include those of Examples 2, 6, 7, 11, 15 and 16. Compounds that have IC50 values between 20 nM and 50 nM include those of examples 1, 4, 5, 8, 10, 12, 13 and 14. Those that have measured IC50 values > 50 nM include those of examples 9 and 21.

[2] = system: SK-MEL2 human tumor cells that were transfected with a plasmid containing the murine VEGF gene; assay: Matrigel Angiogenesis Model (hemoglobin content of Matrigel plugs); format: in vivo, Mice; conditions: 30, 100 and 300 mg/kg po sid; 12 days post-implantation; vs. vehicle control animals
Experimental: Preparation of Matrigel Plugs and in vivo Phase: Matrigel® (Collaborative Biomedical Products, Bedford, MA) is a basement membrane extract from a murine tumor composed primarily of laminin, collagen IV and heparan sulfate proteoglycan. It is provided as a sterile liquid at 4° C, but rapidly forms a solid gel at 37° C.
Liquid Matrigel at 4° C was mixed with SK-MEL2 human tumor cells that were transfected with a plasmid containing the murine VEGF gene with a selectable marker. Tumor cells were grown in vitro under selection and cells were mixed with cold liquid Matrigel at a ratio of 2 X 10^6 per 0.5 ml. […]
Optical densities were determined spectrophotometrically at 600 nm in a 96-well plate reader, SpectraMax 250 Microplate Spectrophotometer System (Molecular Devices, Sunnyvale, CA). Background Lysis Buffer readings were subtracted from all wells.
Total sample hemoglobin content was calculated according to the following equation: Total Hemoglobin = (Sample Lysate Volume) x (Hemoglobin Concentration) [formula]
The average Total Hemoglobin of Matrigel samples without cells was subtracted from each Total Hemoglobin Matrigel sample with cells. Percent inhibition was calculated according to the following equation: % Inhibition =((Average Total Hemoglobin Drug-Treated Tumor Lysates) X 100)/((Average Total Hemoglobin Non-Treated Tumor Lysates)) [formula]

T1 sequence (P35968 20-1356): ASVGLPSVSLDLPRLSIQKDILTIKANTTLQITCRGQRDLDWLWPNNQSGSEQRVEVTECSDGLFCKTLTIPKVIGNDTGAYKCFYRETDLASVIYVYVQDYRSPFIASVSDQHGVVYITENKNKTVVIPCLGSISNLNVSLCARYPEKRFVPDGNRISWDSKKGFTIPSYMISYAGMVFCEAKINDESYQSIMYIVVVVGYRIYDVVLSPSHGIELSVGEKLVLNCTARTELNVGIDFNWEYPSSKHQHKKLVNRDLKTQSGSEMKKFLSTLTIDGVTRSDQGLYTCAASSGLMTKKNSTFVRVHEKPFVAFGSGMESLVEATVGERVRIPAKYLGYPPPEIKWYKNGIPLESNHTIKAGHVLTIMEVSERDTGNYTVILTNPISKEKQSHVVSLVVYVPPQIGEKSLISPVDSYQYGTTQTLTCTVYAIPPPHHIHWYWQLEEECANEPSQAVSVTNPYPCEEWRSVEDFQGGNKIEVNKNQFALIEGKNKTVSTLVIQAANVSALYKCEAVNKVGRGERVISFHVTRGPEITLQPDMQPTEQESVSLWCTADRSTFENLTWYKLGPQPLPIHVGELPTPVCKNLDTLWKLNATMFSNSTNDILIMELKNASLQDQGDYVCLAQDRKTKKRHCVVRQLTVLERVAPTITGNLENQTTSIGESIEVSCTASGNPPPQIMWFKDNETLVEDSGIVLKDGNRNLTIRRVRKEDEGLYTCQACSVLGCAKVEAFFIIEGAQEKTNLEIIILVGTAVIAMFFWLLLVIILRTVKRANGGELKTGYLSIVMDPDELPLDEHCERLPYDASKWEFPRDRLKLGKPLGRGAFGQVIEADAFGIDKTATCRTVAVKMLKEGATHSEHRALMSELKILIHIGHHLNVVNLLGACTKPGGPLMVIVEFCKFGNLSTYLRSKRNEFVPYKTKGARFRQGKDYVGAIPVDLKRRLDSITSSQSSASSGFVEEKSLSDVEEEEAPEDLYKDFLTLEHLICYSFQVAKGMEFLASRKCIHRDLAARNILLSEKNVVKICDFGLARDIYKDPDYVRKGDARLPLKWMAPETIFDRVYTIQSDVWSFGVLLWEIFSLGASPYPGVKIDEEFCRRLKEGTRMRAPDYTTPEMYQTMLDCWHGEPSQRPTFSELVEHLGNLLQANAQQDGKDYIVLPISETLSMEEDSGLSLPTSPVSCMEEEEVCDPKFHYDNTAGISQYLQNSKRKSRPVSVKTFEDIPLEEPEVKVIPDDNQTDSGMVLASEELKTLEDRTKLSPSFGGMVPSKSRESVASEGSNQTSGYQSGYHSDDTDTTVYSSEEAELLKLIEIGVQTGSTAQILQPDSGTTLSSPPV

IC50 [1]: < 0.02 µM
SMILES: NC(=O)c1cc(Cc2nnc(Nc3ccc(Cl)cc3)c3ccccc23)ccn1 [Example 2, 4-[4-(4-Chlorophenylamino)phthalazin-1-ylmethyl]pyridin-2-yl carboxylic acid amide]
inhibition of total hemoglobin content of the Matrigel samples [2]: > 50%
